# Results from patent US12692223B2, “Phenyl-sulfamoyl-benzoic acid derivatives as ERAP1-modulators” (GREY WOLF THERAPEUTICS LIMITED, priority 2021, dated 2026).
# Target: T1, ERAP1 (Homo sapiens, UniProt Q9NZ08)
# T1 construct: Purified ERAP1(37-941)-10His (ERAP1)
# Test: ERAP1 mediated hydrolysis of an amide substrate measured in a biochemical system (10-mer inhibition assay)
# Conditions: purified ERAP1(37-941)-10His; 10-mer substrate; 23° C. for 1 h; excitation 279 nm, emission 355 nm; read-out: IC50 vs Decapeptide WRVYEKC(Dnp)ALK-acid (where Dnp is Dinitrophenyl maleimide) (10-mer)
# How it was run: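 Purified ERAP1(37-941)-10His in 25 mM Bis-tris propane, 0.05% HPMC, pH 7.75, with compound, then 100 μM 10-mer WRVYEKC(Dnp)ALK or 240 μM L-AMC added (stock concentrations before 1:1 mixing), 1 h at 23 °C. Fluorescence read at ex 279/em 355 nm (10-mer) or ex 365/em 442 nm (L-AMC); IC50 from 4-parameter fit.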
# T1 sequence (Q9NZ08 37-941): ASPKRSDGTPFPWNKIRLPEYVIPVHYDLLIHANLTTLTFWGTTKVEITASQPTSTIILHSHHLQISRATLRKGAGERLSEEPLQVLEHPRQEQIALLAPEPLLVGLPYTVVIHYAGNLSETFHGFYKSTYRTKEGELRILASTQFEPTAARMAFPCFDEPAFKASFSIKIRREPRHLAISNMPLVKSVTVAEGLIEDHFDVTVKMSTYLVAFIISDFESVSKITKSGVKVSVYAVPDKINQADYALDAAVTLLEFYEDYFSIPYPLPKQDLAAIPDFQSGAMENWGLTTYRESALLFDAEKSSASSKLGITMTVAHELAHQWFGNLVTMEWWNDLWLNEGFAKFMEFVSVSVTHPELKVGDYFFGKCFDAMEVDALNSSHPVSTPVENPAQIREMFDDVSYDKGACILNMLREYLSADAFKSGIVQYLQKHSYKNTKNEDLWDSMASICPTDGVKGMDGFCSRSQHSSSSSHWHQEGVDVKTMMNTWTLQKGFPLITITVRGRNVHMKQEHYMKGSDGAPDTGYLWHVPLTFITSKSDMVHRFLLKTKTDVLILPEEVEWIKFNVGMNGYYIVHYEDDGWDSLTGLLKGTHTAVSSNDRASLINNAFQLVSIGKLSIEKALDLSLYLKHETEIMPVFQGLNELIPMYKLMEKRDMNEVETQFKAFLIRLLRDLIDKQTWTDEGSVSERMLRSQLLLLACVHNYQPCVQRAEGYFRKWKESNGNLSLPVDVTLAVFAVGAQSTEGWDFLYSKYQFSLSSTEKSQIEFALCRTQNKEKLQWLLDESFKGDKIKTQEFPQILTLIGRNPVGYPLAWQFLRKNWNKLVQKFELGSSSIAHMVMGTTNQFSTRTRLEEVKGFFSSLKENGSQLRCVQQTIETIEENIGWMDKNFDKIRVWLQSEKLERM
row,Compound,IC50 [nM]
1,"N#Cc1cc(NS(=O)(=O)c2cc(C(=O)O)ccc2C2CC2)c(O[C@H]2C[C@@H](O)C2)cc1Cl [Example 112, 3-(N-(4-chloro-5-cyano-2-(cis-3-hydroxycyclobutoxy)phenyl)sulfamoyl)-4-cyclopropylbenzoic acid]",> 5
2,"CC1(C)CCC[C@H]1Oc1cc(F)c(-n2cnnn2)cc1NS(=O)(=O)c1cc(C(=O)O)ccc1C1CC1 [Example 125, (R)-4-cyclopropyl-3-(N-(2-((2,2-dimethylcyclopentyl)oxy)-4-fluoro-5-(1H-tetrazol-1-yl)phenyl)sulfamoyl)benzoic acid]",< 1
3,"N#Cc1cc(NS(=O)(=O)c2cc(C(=O)O)ccc2C2CC2)c(OC2CCC(F)(F)C2)cc1Cl (stereo not drawn) [Example 134, 3-(N-(4-chloro-5-cyano-2-((3,3-difluorocyclopentyl)oxy)phenyl)sulfa-moyl)-4-cyclopropylbenzoic acid]",< 1
